Read-outs that look alike come from different tables or passages of the source.
Tests used:
human recombinant HDAC6 = target: T1, human recombinant HDAC6 (Homo sapiens, UniProt Q9UBN7); assay: HDAC6 enzyme activity inhibition (HDAC Fluorimetric Drug Discovery Kit); format: biochemical
T1 construct: purchased Calbiochem Inc. 382180
T1 sequence (Q9UBN7 1-1215): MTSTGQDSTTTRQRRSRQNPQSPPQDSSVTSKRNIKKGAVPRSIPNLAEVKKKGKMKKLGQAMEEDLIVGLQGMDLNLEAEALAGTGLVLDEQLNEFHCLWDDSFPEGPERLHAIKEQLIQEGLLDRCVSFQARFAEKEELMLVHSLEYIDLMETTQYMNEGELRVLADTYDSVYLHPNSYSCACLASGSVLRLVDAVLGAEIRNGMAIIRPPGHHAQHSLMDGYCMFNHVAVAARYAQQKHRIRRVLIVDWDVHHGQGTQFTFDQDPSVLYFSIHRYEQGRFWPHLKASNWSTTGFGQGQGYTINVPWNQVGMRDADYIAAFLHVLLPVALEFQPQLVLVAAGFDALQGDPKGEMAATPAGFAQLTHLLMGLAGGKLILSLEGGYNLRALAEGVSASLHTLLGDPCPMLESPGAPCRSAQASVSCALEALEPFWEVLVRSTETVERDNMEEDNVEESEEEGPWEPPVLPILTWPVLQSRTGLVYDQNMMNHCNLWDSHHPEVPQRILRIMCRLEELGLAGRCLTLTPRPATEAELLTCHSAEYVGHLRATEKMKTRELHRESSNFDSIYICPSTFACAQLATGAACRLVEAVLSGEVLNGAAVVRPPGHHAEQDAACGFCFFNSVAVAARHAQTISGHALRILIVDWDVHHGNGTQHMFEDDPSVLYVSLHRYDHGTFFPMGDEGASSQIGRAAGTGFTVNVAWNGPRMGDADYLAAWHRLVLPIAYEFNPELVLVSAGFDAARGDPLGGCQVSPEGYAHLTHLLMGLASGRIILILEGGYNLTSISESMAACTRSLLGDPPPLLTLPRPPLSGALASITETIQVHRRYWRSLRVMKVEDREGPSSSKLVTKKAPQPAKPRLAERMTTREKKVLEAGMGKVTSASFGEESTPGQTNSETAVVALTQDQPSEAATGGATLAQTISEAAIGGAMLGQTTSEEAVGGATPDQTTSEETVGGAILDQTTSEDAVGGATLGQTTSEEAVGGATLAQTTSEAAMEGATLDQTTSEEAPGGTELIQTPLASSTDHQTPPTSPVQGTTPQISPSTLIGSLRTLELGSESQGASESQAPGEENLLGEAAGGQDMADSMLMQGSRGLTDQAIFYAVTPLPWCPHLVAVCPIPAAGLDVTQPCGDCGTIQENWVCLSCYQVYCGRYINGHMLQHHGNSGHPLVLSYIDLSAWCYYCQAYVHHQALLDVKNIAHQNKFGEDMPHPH
Description: (§1) An experiment was conducted to identify the selectivity of the compound represented by formula I of the present invention to HDAC6 through an experiment on HDAC1 and HDAC6 enzyme activity inhibition.
(§2) A 5-fold dilution of the compound was divided into a 96-well plate, after which […] of the enzyme and 10 μM of the substrate were inserted into each well and subjected to reaction at 30° C. for 60 minutes, such that Fluor de Lys® Developer II (BML-KI176) was inserted thereinto and subjected to reaction for 30 minutes and finished.

human recombinant HDAC1 = target: T2, human recombinant HDAC1 (Homo sapiens, UniProt Q13547); assay: HDAC1 enzyme activity inhibition (HDAC Fluorimetric Drug Discovery Kit); format: biochemical; conditions: read-out: HDAC1
T2 construct: purchased Enzo Life Science, Inc. BML-SE456
Description: as §1, §2

[1] = human recombinant HDAC6, same protocol as HDAC1
[2] = human recombinant HDAC1, Fluor de Lys substrate, 30° C. 60 minutes
[3] = human recombinant HDAC6, IC50 calculated with GraphPad Prism
[4] = human recombinant HDAC1, IC50 calculated with GraphPad Prism

T2 sequence (Q13547 whole entry): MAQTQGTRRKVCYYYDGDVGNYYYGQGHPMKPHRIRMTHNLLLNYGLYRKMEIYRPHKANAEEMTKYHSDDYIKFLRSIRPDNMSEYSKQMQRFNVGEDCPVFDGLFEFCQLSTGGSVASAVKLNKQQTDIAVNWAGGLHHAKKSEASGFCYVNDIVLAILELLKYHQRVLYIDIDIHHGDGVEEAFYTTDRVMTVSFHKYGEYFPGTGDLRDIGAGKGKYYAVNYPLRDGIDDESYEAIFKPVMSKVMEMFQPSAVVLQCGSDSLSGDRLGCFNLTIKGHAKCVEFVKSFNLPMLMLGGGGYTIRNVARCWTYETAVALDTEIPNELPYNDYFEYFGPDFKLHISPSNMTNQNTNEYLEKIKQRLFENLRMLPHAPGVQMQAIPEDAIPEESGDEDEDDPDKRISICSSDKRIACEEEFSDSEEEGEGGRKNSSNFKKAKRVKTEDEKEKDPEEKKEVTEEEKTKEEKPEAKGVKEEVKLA

Row | HDAC6 selectivity (fold) (human recombinant HDAC6; HDAC6 over HDAC1) | IC50 (human recombinant HDAC6; [1]) [nM] | IC50 (human recombinant HDAC1; [2]) [nM] | HDAC6 selectivity (fold) (human recombinant HDAC6; HDAC1 IC50 / HDAC6 IC50) | IC50 (human recombinant HDAC6; [3]) [nM] | IC50 (human recombinant HDAC1; [4]) [nM] | SMILES
1 | 1089 | 45.9 | > 50000 |  |  |  | Fc1cc(-c2nnc(C(F)F)o2)cnc1Cn1cc(-c2ccc3cc[nH]c3c2)nn1 [Compound 18918, 2-(6-((4-(1H-indol-6-yl)-1H-1,2,3-triazol-1-yl)methyl)-5-fluoropyridin-3-yl)-5-(difluoromethyl)-1,3,4-oxadiazole]
2 | 657 | 76.1 | > 50000 |  |  |  | Fc1cc(-c2nnc(C(F)F)o2)ccc1Cn1cc(-c2csc(CN3CCC3)c2)nn1 [Compound 18178, 2-(4-((4-(5-(azetidin-1-ylmethyl)thiophen-3-yl)-1H-1,2,3-triazol-1-yl)methyl)-3-fluorophenyl)-5-(difluoromethyl)-1,3,4-oxadiazole]
3 | 570 | 87.6 | > 50000 |  |  |  | Fc1cc(-c2cn(Cc3ncc(-c4nnc(C(F)F)o4)cc3F)nn2)ccc1CN1CCCCC1 [Compound 18950, 2-(difluoromethyl)-5-(5-fluoro-6-((4-(3-fluoro-4-(piperidin-1-ylmethyl)phenyl)-1H-1,2,3-triazol-1-yl)methyl)pyridin-3-yl)-1,3,4-oxadiazole]
4 | 900 | 55.5 | > 50000 |  |  |  | CN1Cc2ccc(-c3cn(Cc4ccc(-c5nnc(C(F)F)o5)cc4F)nn3)cc2C1 [Compound 4515, 2-(difluoromethyl)-5-(3-fluoro-4-((4-(2-methylisoindolin-5-yl)-1H-1,2,3-triazol-1-yl)methyl)phenyl)-1,3,4-oxadiazole]
5 | 2173 | 23 | > 50000 |  |  |  | FC(F)c1nnc(-c2ccc(Cn3cc(-c4cccc(C5CN(C6CCC6)C5)c4)nn3)cc2)o1 [Compound 4510, 2-(4-((4-(3-(1-cyclobutylazetidin-3-yl)phenyl)-1H-1,2,3-triazol-1-yl)methyl)phenyl)-5-(difluoromethyl)-1,3,4-oxadiazole]
6 |  |  |  | 1213 | 41.2 | > 50000 | Fc1cc(-c2nnc(C(F)F)o2)ccc1Cn1cc(-c2cccc(CN3CC(F)C3)c2)nn1 [Compound 4403, 2-(difluoromethyl)-5-(3-fluoro-4-((4-(3-((3-fluoroazetidin-1-yl)methyl)phenyl)-1H-1,2,3-triazol-1-yl)methyl)phenyl)-1,3,4-oxadiazole]
7 |  |  |  | 1655 | 30.2 | > 50000 | O=C(c1cccc(-c2cn(Cc3ccc(-c4nnc(C(F)F)o4)cn3)nn2)c1)N1CCCC1 [Compound 3829, (3-(1-((5-(5-(difluoromethyl)-1,3,4-oxadiazol-2-yl)pyridin-2-yl)methyl)-1H-1,2,3-triazol-4-yl)phenyl)(pyrrolidin-1-yl)methanone]
8 | 2314 | 21.6 | > 50000 |  |  |  | Fc1c(-c2cn(Cc3ccc(-c4nnc(C(F)F)o4)cn3)nn2)cccc1N1CCN(C2COC2)CC1 [Compound 4573, 2-(difluoromethyl)-5-(6-((4-(2-fluoro-3-(4-(oxetan-3-yl)piperazin-1-yl)phenyl)-1H-1,2,3-triazol-1-yl)methyl)pyridin-3-yl)-1,3,4-oxadiazole]
9 |  |  |  | 1506 | 33.2 | > 50000 | FC(F)c1nnc(-c2ccc(Cn3cc(-c4ccc(Br)cn4)nn3)nc2)o1 [Compound 4180, 2-(6-((4-(5-bromopyridin-2-yl)-1H-1,2,3-triazol-1-yl)methyl)pyridin-3-yl)-5-(difluoromethyl)-1,3,4-oxadiazole]
10 |  |  |  | 3759 | 13.3 | > 50000 | CC(C)(N)C(=O)Nc1cccc(-c2cn(Cc3ccc(-c4nnc(C(F)F)o4)cn3)nn2)c1 [Compound 4497, 2-amino-N-(3-(1-((5-(5-(difluoromethyl)-1,3,4-oxadiazol-2-yl)pyridin-2-yl)methyl)-1H-1,2,3-triazol-4-yl)phenyl)-2-methylpropanamide]
11 | 775 | 64.5 | > 50000 |  |  |  | Fc1cc(-c2nnc(C(F)F)o2)ccc1Cn1cc(-c2ccc(CN3CC[C@@H](F)C3)cn2)nn1 [Compound 18260, (R)-2-(difluoromethyl)-5-(3-fluoro-4-((4-(5-((3-fluoropyrrolidin-1-yl)methyl)pyridin-2-yl)-1H-1,2,3-triazol-1-yl)methyl)phenyl)-1,3,4-oxadiazole]
12 |  |  |  | 290 | 172 | > 50000 | FC(F)(F)c1nnc(-c2ccc(Cn3nnc(-c4ccccc4)n3)nc2)o1 [Compound 4235]
13 | 3546 | 14.1 | > 50000 |  |  |  | CCN1CCN(c2cc(-c3cn(Cc4ccc(-c5nnc(C(F)F)o5)cn4)nn3)ccn2)CC1 [Compound 4591, 2-(difluoromethyl)-5-(6-((4-(2-(4-ethylpiperazin-1-yl)pyridin-4-yl)-1H-1,2,3-triazol-1-yl)methyl)pyridin-3-yl)-1,3,4-oxadiazole]
14 | 639 | 78.2 | > 50000 |  |  |  | CN(C)Cc1cccc(-c2cn(Cc3ncc(-c4nnc(C(F)F)o4)cc3F)nn2)c1Cl [Compound 19088, 1-(2-chloro-3-(1-((5-(5-(difluoromethyl)-1,3,4-oxadiazol-2-yl)-3-fluoropyridin-2-yl)methyl)-1H-1,2,3-triazol-4-yl)phenyl)-N,N-dimethylmethanamine]
15 |  |  |  | 3355 | 14.9 | > 50000 | CC(C)(C)OC(=O)NC1(C(=O)Nc2cccc(-c3cn(Cc4ccc(-c5nnc(C(F)F)o5)cn4)nn3)c2)CCC1 [Compound 4496, tert-butyl (1-((3-(1-((5-(5-(difluoromethyl)-1,3,4-oxadiazol-2-yl)pyridin-2-yl)methyl)-1H-1,2,3-triazol-4-yl)phenyl)carbamoyl)cyclobutyl)carbamate]
16 | 524 | 95.4 | > 50000 |  |  |  | CN(C)Cc1ccc(-c2cn(Cc3ccc(-c4nnc(C(F)F)o4)cc3F)nn2)cc1Cl [Compound 18711, 1-(2-chloro-4-(1-(4-(5-(difluoromethyl)-1,3,4-oxadiazol-2-yl)-2-fluorobenzyl)-1H-1,2,3-triazol-4-yl)phenyl)-N,N-dimethylmethanamine]
17 |  |  |  | 239 | 208 | > 50000 | CC(=O)N1CCC[C@H]1c1cn(Cc2ccc(-c3nnc(C(F)F)o3)cn2)nn1 [Compound 4029, (S)-1-(2-(1-((5-(5-(difluoromethyl)-1,3,4-oxadiazol-2-yl)pyridin-2-yl)methyl)-1H-1,2,3-triazol-4-yl)pyrrolidin-1-yl)ethan-1-one]
18 |  |  |  | 627 | 79.7 | > 50000 | FC(F)c1nnc(-c2ccc(Cn3cc(C4CCCCC4)nn3)nc2)o1 [Compound 3880, 2-(6-((4-cyclohexyl-1H-1,2,3-triazol-1-yl)methyl)pyridin-3-yl)-5-(difluoromethyl)-1,3,4-oxadiazole]
19 | 2100 | 23.8 | > 50000 |  |  |  | FC(F)c1nnc(-c2ccc(Cn3cc(-c4ccc(CNC5CCC5)cc4)nn3)cc2)o1 [Compound 4555, N-(4-(1-(4-(5-(difluoromethyl)-1,3,4-oxadiazol-2-yl)benzyl)-1H-1,2,3-triazol-4-yl)benzyl)cyclobutanamine]
20 |  |  |  | 1319 | 37.9 | > 50000 | CCOC(=O)N(C)c1cccc(-c2cn(Cc3ccc(-c4nnc(C(F)F)o4)cn3)nn2)c1 [Compound 3890]
21 |  |  |  | 531 | 94 | > 50000 | FC(F)c1nnc(-c2ccc(Cn3cc(-c4cccc(N5C[C@@H]6C[C@H]5CN6C5CCC5)c4)nn3)cc2)o1 [Compound 4322]
